According to patent US20170189504A1, “NOVEL PEPTIDES AND COMBINATION OF PEPTIDES FOR USE IN IMMUNOTHERAPY AGAINST VARIOUS CANCERS” (immatics biotechnologies GmbH, priority 2015, published 2017):

test system: HLA-A*24; test: MHC binding assay, UV-ligand exchange with β2m ELISA, HLA-A*24 (Table 21); design: species or system human; conditions: binding to HLA-A*24 ranged by peptide exchange yield (UV-ligand exchange, β2m ELISA)
Text: Candidate peptides for T cell based therapies according to the present invention were further tested for their MHC binding capacity (affinity). The individual peptide-MHC complexes were produced by UV-ligand exchange, where a UV-sensitive peptide is cleaved upon UV-irradiation, and exchanged with the peptide of interest as analyzed. Only peptide candidates that can effectively bind and stabilize the peptide-receptive MHC molecules prevent dissociation of the MHC complexes. To determine the yield of the exchange reaction, an ELISA was performed based on the detection of the light chain ((β2m) of stabilized MHC complexes. The assay was performed as generally described in Rodenko et al. (Rodenko et al., 2006).
96 well MAXISorp plates (NUNC) were coated over night with 2 ug/ml streptavidin in PBS at room temperature, washed 4× and blocked for 1 h at 37° C. in 2% BSA containing blocking buffer. Refolded HLA-A*02:01/MLA-001 monomers served as standards, covering the range of 15-500 ng/ml. Peptide-MHC monomers of the UV-exchange reaction were diluted 100 fold in blocking buffer. Samples were incubated for 1 h at 37° C., washed four times, incubated with 2 ug/ml HRP conjugated anti-β2m for 1 h at 37° C., washed again and detected with TMB solution that is stopped with […]. Absorption was measured at 450 nm. Candidate peptides that show a high exchange yield (preferably higher than 50%, most preferred higher than 75%) are generally preferred for a generation and production of antibodies or fragments thereof, and/or T cell receptors or fragments thereof, as they show sufficient avidity to the MHC molecules and prevent dissociation of the MHC complexes.

| Substance | Peptide exchange |
| --- | --- |
| 209 (TYKDEGNDYF; listed as Homo sapiens) [compound 209] | +++ (50%-75% = +++) |
| 164 (KFSSFSLFF; listed as Homo sapiens) [compound 164] | +++ (50%-75% = +++) |
| 205 (VHIPEVYLI; listed as Homo sapiens) [compound 205] | +++ (50%-75% = +++) |
| 181 (LYLDIINLF; listed as Homo sapiens) [compound 181] | ++++ (≧75% = ++++) |
| 203 (FYSRLLQKF; listed as Homo sapiens) [compound 203] | +++ (50%-75% = +++) |
| 170 (VYEDQVGKF; listed as Homo sapiens) [compound 170] | ++ (20%-49% = ++) |
| 201 (IYATEAHVF; listed as Homo sapiens) [compound 201] | +++ (50%-75% = +++) |
| 171 (LFIPSSKLLFL; listed as Homo sapiens) [compound 171] | +++ (50%-75% = +++) |
| 191 (VFKASKITF; listed as Homo sapiens) [compound 191] | +++ (50%-75% = +++) |
| 189 (WYVNGVNYF; listed as Homo sapiens) [compound 189] | ++ (20%-49% = ++) |
| 216 (QYSSVFKSL; listed as Homo sapiens) [compound 216] | ++++ (≧75% = ++++) |
| 182 (IYQLDTASI; listed as Homo sapiens) [compound 182] | +++ (50%-75% = +++) |
| 208 (TYTQDFNKF; listed as Homo sapiens) [compound 208] | +++ (50%-75% = +++) |
| 174 (VYVGGGQIIHL; listed as Homo sapiens) [compound 174] | +++ (50%-75% = +++) |
| 188 (RYFKGLVF; listed as Homo sapiens) [compound 188] | +++ (50%-75% = +++) |
| 175 (YYEVHKELF; listed as Homo sapiens) [compound 175] | ++++ (≧75% = ++++) |
| 210 (IYTMIYRNL; listed as Homo sapiens) [compound 210] | ++++ (≧75% = ++++) |
| 214 (LYLKLWNLI; listed as Homo sapiens) [compound 214] | +++ (50%-75% = +++) |
| 195 (TYSVSFPMF; listed as Homo sapiens) [compound 195] | ++++ (≧75% = ++++) |

The remaining lines, values ahead:

| Peptide exchange | Substance |
| --- | --- |
| +++ (50%-75% = +++) | 224 (QYLENLEKL; listed as Homo sapiens) [compound 224] |
| +++ (50%-75% = +++) | 225 (YYVYIMNHL; listed as Homo sapiens) [compound 225] |
| +++ (50%-75% = +++) | 283 (TYGDAGLTYTF; listed as Homo sapiens) [compound 283] |
| ++++ (≧75% = ++++) | 280 (RYPDNLKHLYL; listed as Homo sapiens) [compound 280] |
| ++++ (≧75% = ++++) | 289 (KYPVEWAKF; listed as Homo sapiens) [compound 289] |
| +++ (50%-75% = +++) | 279 (TYIESASEL; listed as Homo sapiens) [compound 279] |
| +++ (50%-75% = +++) | 219 (EYPLVINTL; listed as Homo sapiens) [compound 219] |
| +++ (50%-75% = +++) | 270 (NYYEVHKELF; listed as Homo sapiens) [compound 270] |
| +++ (50%-75% = +++) | 223 (KYIPYKYVI; listed as Homo sapiens) [compound 223] |
| ++++ (≧75% = ++++) | 274 (AYLHSHALI; listed as Homo sapiens) [compound 274] |
| +++ (50%-75% = +++) | 221 (RYSTGLAGNLL; listed as Homo sapiens) [compound 221] |
| ++++ (≧75% = ++++) | 276 (VYGFQWRHF; listed as Homo sapiens) [compound 276] |
| +++ (50%-75% = +++) | 275 (EYINQGDLHEF; listed as Homo sapiens) [compound 275] |
